# Tested on: SW1271 complex spheroids with HUVEC/MSC, growth, % test/control
# Test: Anticancer human tumor SW1271 cell line growth inhibition [AhR];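 note: spheroids exposed to agents for 7 days before readout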
# Details: for IC50: curve of first compound; for viability, T/C: stronger effect = lower value
# Summary of the method: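 Spheroids combined tumor cells with HUVEC endothelial cells and human MSCs as stroma. AhR antagonists were paired with standard or investigational drugs, each dosed in half-log steps down from near clinical Cmax, or from 10 microM where Cmax was unknown.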
# [1] = second compound 0.1 µM, first compound 0.00949 µM
# [2] = second compound 0.1 µM, first compound 0.03 µM
# [3] = second compound 0.1 µM, first compound 0.0949 µM
# [4] = second compound 0.1 µM, first compound 0.3 µM
# [5] = second compound 0.316 µM, first compound 0.00949 µM
# [6] = second compound 0.316 µM, first compound 0.03 µM
# [7] = second compound 0.316 µM, first compound 0.0949 µM
# [8] = second compound 0.316 µM, first compound 0.3 µM
# [9] = second compound 1 µM, first compound 0.00949 µM
# [10] = second compound 1 µM, first compound 0.03 µM
# [11] = second compound 1 µM, first compound 0.0949 µM
# [12] = second compound 1 µM, first compound 0.3 µM
# [13] = second compound 3.16 µM, first compound 0.00949 µM
# [14] = second compound 3.16 µM, first compound 0.03 µM
# [15] = second compound 3.16 µM, first compound 0.0949 µM
# [16] = second compound 3.16 µM, first compound 0.3 µM
# [17] = second compound 10 µM, first compound 0.00949 µM
# [18] = second compound 10 µM, first compound 0.03 µM
# [19] = second compound 10 µM, first compound 0.0949 µM
# [20] = second compound 10 µM, first compound 0.3 µM
compound,measurement,setting,value
Nc1ncn(C2CC(O)C(CO)S2)c(=O)n1 (stereo not given) + CC(CO)NC(=O)c1cc(-c2ccc(Cl)cc2)nn(-c2cnn(C)c2)c1=O,IC50,second compound 0.1 µM,> 300 nM
same,IC50,second compound 0.316 µM,> 300 nM
same,IC50,second compound 1 µM,> 300 nM
same,IC50,second compound 3.16 µM,> 300 nM
same,IC50,second compound 10 µM,> 300 nM
same,"viability, T/C","second compound 0.1 µM, first compound 0.000949 µM",110%
same,"viability, T/C","second compound 0.1 µM, first compound 0.003 µM",98.1%
same,"viability, T/C",[1],107%
same,"viability, T/C",[2],102%
same,"viability, T/C",[3],83.4%
same,"viability, T/C",[4],87.3%
same,"viability, T/C","second compound 0.316 µM, first compound 0.000949 µM",103%
same,"viability, T/C","second compound 0.316 µM, first compound 0.003 µM",87%
same,"viability, T/C",[5],116%
same,"viability, T/C",[6],113%
same,"viability, T/C",[7],74%
same,"viability, T/C",[8],68.9%
same,"viability, T/C","second compound 1 µM, first compound 0.000949 µM",93.4%
same,"viability, T/C","second compound 1 µM, first compound 0.003 µM",77.5%
same,"viability, T/C",[9],92%
same,"viability, T/C",[10],96%
same,"viability, T/C",[11],99.2%
same,"viability, T/C",[12],80.4%
same,"viability, T/C","second compound 3.16 µM, first compound 0.000949 µM",93%
same,"viability, T/C","second compound 3.16 µM, first compound 0.003 µM",76.5%
same,"viability, T/C",[13],83.5%
same,"viability, T/C",[14],82%
same,"viability, T/C",[15],84.8%
same,"viability, T/C",[16],68.1%
same,"viability, T/C","second compound 10 µM, first compound 0.000949 µM",87.3%
same,"viability, T/C","second compound 10 µM, first compound 0.003 µM",78.1%
same,"viability, T/C",[17],80.9%
same,"viability, T/C",[18],77.4%
same,"viability, T/C",[19],84.2%
same,"viability, T/C",[20],68%
O=C(C=Cn1cnc(-c2cc(C(F)(F)F)cc(C(F)(F)F)c2)n1)NNc1cnccn1 + CC(CO)NC(=O)c1cc(-c2ccc(Cl)cc2)nn(-c2cnn(C)c2)c1=O,IC50,second compound 0.1 µM,996 nM
same,IC50,second compound 0.316 µM,911 nM
same,IC50,second compound 1 µM,625 nM
same,IC50,second compound 3.16 µM,450 nM
same,IC50,second compound 10 µM,756 nM
same,"viability, T/C",[1],108%
same,"viability, T/C",[2],76.7%
same,"viability, T/C",[3],93.1%
same,"viability, T/C",[4],70.5%
same,"viability, T/C","second compound 0.1 µM, first compound 0.949 µM",45.6%
same,"viability, T/C","second compound 0.1 µM, first compound 3 µM",34.3%
same,"viability, T/C",[5],74.4%
same,"viability, T/C",[6],79.2%
same,"viability, T/C",[7],72.3%
same,"viability, T/C",[8],63.7%
same,"viability, T/C","second compound 0.316 µM, first compound 0.949 µM",50%
same,"viability, T/C","second compound 0.316 µM, first compound 3 µM",31.7%
same,"viability, T/C",[9],73.9%
same,"viability, T/C",[10],86.7%
same,"viability, T/C",[11],70.8%
same,"viability, T/C",[12],60.4%
same,"viability, T/C","second compound 1 µM, first compound 0.949 µM",44%
same,"viability, T/C","second compound 1 µM, first compound 3 µM",40.5%
same,"viability, T/C",[13],85.2%
same,"viability, T/C",[14],75.3%
same,"viability, T/C",[15],87.3%
same,"viability, T/C",[16],57.4%
same,"viability, T/C","second compound 3.16 µM, first compound 0.949 µM",34.8%
same,"viability, T/C","second compound 3.16 µM, first compound 3 µM",37.8%
same,"viability, T/C",[17],79%
same,"viability, T/C",[18],71.7%
same,"viability, T/C",[19],68.8%
same,"viability, T/C",[20],92.2%
same,"viability, T/C","second compound 10 µM, first compound 0.949 µM",43.2%
same,"viability, T/C","second compound 10 µM, first compound 3 µM",27%

# — PubChem BioAssay AID1919017 (Molecular Pharmacology Branch, DTP, NCI, 2023)
